The term MIC denotes the lowest concentration found to suppress growth. A word on the IC50: it is the concentration that gives 50% inhibition.

The source of these data is ChEMBL document CHEMBL3608229, “Saccharothrixones A-D, Tetracenomycin-Type Polyketides from the Marine-Derived Actinomycete Saccharothrix sp. 10-10” (J Nat Prod, 2015).

The subject of one assay is Morganella morganii. Nature of the assay: Antibacterial activity against beta-lactamase producing Morganella morganii ATCC 25830 after 18 hrs by agar dilution method. It counts as functional. The following applies: ATCC 25830, 18 h. On the technique in general: In agar dilution, organisms are placed on agar that contains the substance at set levels.
In a further assay the test system is Proteus vulgaris. Nature of the assay: Antibacterial activity against beta-lactamase producing Proteus vulgaris ATCC 29905 after 18 hrs by agar dilution method. Type of assay: functional. The following applies: ATCC 29905, 18 h.
Assay [1] relates to Acinetobacter calcoaceticus. Description: Antibacterial activity against beta-lactamase producing Acinetobacter calcoaceticus ATCC 19606 after 18 hrs by agar dilution method. The following applies: ATCC 19606, 18 h. It counts as functional.
Another assay relates to HepG2. Nature of the assay: Cytotoxicity against human HepG2 cells assessed as growth inhibition after 48 hrs by sulforhodamine B assay. Type of assay: functional, cell-based. The following applies: HepG2, 48 h.
A further assay concerns MCF7. Description: Cytotoxicity against human MCF7 cells assessed as growth inhibition after 48 hrs by sulforhodamine B assay. The following applies: MCF7, 48 h. It counts as functional, cell-based. (In SRB staining, fixed cells bind dye roughly in proportion to their protein.)
In the next assay the test system is K562. Nature of the assay: Cytotoxicity against human K562 cells assessed as growth inhibition after 48 hrs by sulforhodamine B assay. It counts as functional, cell-based. The following applies: K562, 48 h.
The subject of assay [2] is Staphylococcus aureus. Description: Antibacterial activity against methicillin-susceptible Staphylococcus aureus ATCC 29213 after 18 hrs by agar dilution method. Type of assay: functional. The following applies: ATCC 29213, 18 h.
Assay [3] relates to Staphylococcus aureus. Description: Antibacterial activity against methicillin-susceptible Staphylococcus aureus 15 after 18 hrs by agar dilution method. Type of assay: functional. The following applies: Staphylococcus aureus, 15, 18 h.
In assay [4] the test system is Staphylococcus aureus. Description: Antibacterial activity against methicillin-resistant Staphylococcus aureus ATCC 33591 after 18 hrs by agar dilution method. Type of assay: functional. The following applies: ATCC 33591, 18 h.
Assay [5] deals with Staphylococcus aureus. Nature of the assay: Antibacterial activity against methicillin-resistant Staphylococcus aureus 12-28 after 18 hrs by agar dilution method. It counts as functional. The following applies: 12-28, 18 h.
For assay [6], the system named is Staphylococcus aureus. Nature of the assay: Antibacterial activity against methicillin-resistant Staphylococcus aureus 12-33 after 18 hrs by agar dilution method. Type of assay: functional. The following applies: 12-33, 18 h.
Assay [7] deals with Staphylococcus epidermidis. Nature of the assay: Antibacterial activity against methicillin-susceptible Staphylococcus epidermidis ATCC 12228 after 18 hrs by agar dilution method. It counts as functional. The following applies: ATCC 12228, 18 h.
Assay [8] has as its system Staphylococcus epidermidis. Description: Antibacterial activity against methicillin-resistant Staphylococcus epidermidis 12-6 after 18 hrs by agar dilution method. Type of assay: functional. The following applies: 12-6, 18 h.
Assay [9] relates to Staphylococcus epidermidis. Nature of the assay: Antibacterial activity against methicillin-resistant Staphylococcus epidermidis 12-8 after 18 hrs by agar dilution method. It counts as functional. The following applies: 12-8, 18 h.
Assay [10] concerns Enterococcus faecalis. Description: Antibacterial activity against vancomycin-susceptible Enterococcus faecalis ATCC 29212 after 18 hrs by agar dilution method. The following applies: ATCC 29212, 18 h. Type of assay: functional.
Assay [11] concerns Enterococcus faecalis. Description: Antibacterial activity against vancomycin-resistant Enterococcus faecalis ATCC 51299 after 18 hrs by agar dilution method. The following applies: ATCC 51299, 18 h. Type of assay: functional.
Assay [12] concerns Enterococcus faecalis. Description: Antibacterial activity against vancomycin-resistant Enterococcus faecalis 12-5 after 18 hrs by agar dilution method. Type of assay: functional. The following applies: 12-5, 18 h.
Assay [13] has as its system Enterococcus faecalis. Nature of the assay: Antibacterial activity against vancomycin-resistant Enterococcus faecalis 09-9 after 18 hrs by agar dilution method. The following applies: 09-9, 18 h. It counts as functional.
Assay [14] deals with Enterococcus faecium. Description: Antibacterial activity against vancomycin-resistant Enterococcus faecium ATCC 700221 after 18 hrs by agar dilution method. It counts as functional. The following applies: ATCC 700221, 18 h.
Assay [15] relates to Enterococcus faecium. Nature of the assay: Antibacterial activity against vancomycin-resistant Enterococcus faecium 12-1 after 18 hrs by agar dilution method. It counts as functional. The following applies: 12-1, 18 h.
Assay [16] has as its system Enterococcus faecium. Nature of the assay: Antibacterial activity against vancomycin-resistant Enterococcus faecium 12-3 after 18 hrs by agar dilution method. Type of assay: functional. The following applies: 12-3, 18 h.
For the next assay, the system named is Escherichia coli. Description: Antibacterial activity against beta-lactamase producing Escherichia coli ATCC 25922 after 18 hrs by agar dilution method. Type of assay: functional. The following applies: ATCC 25922, 18 h.
For assay [17], the system named is Klebsiella pneumoniae. Nature of the assay: Antibacterial activity against extended spectrum beta-lactamase producing Klebsiella pneumoniae ATCC 700603 after 18 hrs by agar dilution method. Type of assay: functional. The following applies: ATCC 700603, 18 h.
In assay [18] the test system is Klebsiella pneumoniae. Nature of the assay: Antibacterial activity against NDM-1 producing Klebsiella pneumoniae ATCC BAA-2146 after 18 hrs by agar dilution method. Type of assay: functional. The following applies: ATCC BAA-2146, 18 h.
Another assay has as its system Pseudomonas aeruginosa. Description: Antibacterial activity against beta-lactamase producing Pseudomonas aeruginosa ATCC 27853 after 18 hrs by agar dilution method. Type of assay: functional. The following applies: ATCC 27853, 18 h.

Turning to `COC(=O)c1c(OC)cc2cc3c(c(O)c2c1C)C(=O)O[C@H]3[C@@]1(O)[C@H](O)C(OC)=CC(=O)[C@H]1OC`, the MIC (with Morganella morganii; in the assay on Proteus vulgaris; in assay [1]; in the assay with Staphylococcus aureus [2]; with Staphylococcus aureus [3]; against Staphylococcus aureus [4]) was above 64 µg/mL each time. Further, the MIC (with Staphylococcus aureus [5]; with Staphylococcus aureus [6]; in assay [7]; in assay [8]; in [9]; with Enterococcus faecalis [10]) was above 64 µg/mL each time. Besides, the MIC against Enterococcus faecalis [11], against Enterococcus faecalis [12], against Enterococcus faecalis [13], with Enterococcus faecium [14], against Enterococcus faecium [15] and against Enterococcus faecium [16] was above 64 µg/mL each time. The MIC against Escherichia coli, in the assay with Klebsiella pneumoniae [17], against Klebsiella pneumoniae [18] and with Pseudomonas aeruginosa was above 64 µg/mL throughout. Further, the IC50 in the assay on HepG2, in the assay on MCF7 and with K562 was above 100 µM throughout.

For `COC(=O)c1c(OC)cc2cc3c(c(O)c2c1C)C(=O)[C@@]1(O)C(OC)=CC(=O)[C@H](OC)[C@@]1(O)C3=O`, the MIC (against Morganella morganii; in the assay on Proteus vulgaris; in assay [1]; with Staphylococcus aureus [2]; with Staphylococcus aureus [3]; against Staphylococcus aureus [4]) was above 64 µg/mL each time. The MIC (in the assay on Staphylococcus aureus [5]; with Staphylococcus aureus [6]; in [7]; in assay [8]; in assay [9]; against Enterococcus faecalis [10]) was above 64 µg/mL throughout. Further, the MIC in the assay on Enterococcus faecalis [11], in the assay on Enterococcus faecalis [12], against Enterococcus faecalis [13], in the assay on Enterococcus faecium [14], with Enterococcus faecium [15] and in the assay with Enterococcus faecium [16] was above 64 µg/mL in each case. Moreover, the MIC against Escherichia coli, against Klebsiella pneumoniae [17], in the assay with Klebsiella pneumoniae [18] and in the assay with Pseudomonas aeruginosa was above 64 µg/mL in each case. For the same compound, the values for the IC50 in the assay on HepG2, in the assay with MCF7 and in the assay on K562 were 7.5 µM, 16.2 µM and 20.8 µM, respectively.

Turning to `COc1cccc2c1C(=O)c1c(O)c3c(c(O)c1C2=O)C[C@@](O)(C(=O)CO)C[C@@H]3O[C@H]1C[C@H](N)[C@H](O)[C@H](C)O1` [DOXORUBICIN], the IC50 in the assay with HepG2 turned out to be 5.4 µM; with K562, 10.9 µM.

For the compound `COC(=O)c1c(OC)cc2cc3c(c(O)c2c1C)C(=O)O[C@@H]3[C@@]1(O)[C@H](O)C(OC)=CC(=O)[C@@H]1OC`, the MIC (with Morganella morganii; against Proteus vulgaris; in assay [1]; against Staphylococcus aureus [2]; against Staphylococcus aureus [3]; against Staphylococcus aureus [4]) was above 64 µg/mL in each case. Also, the MIC (with Staphylococcus aureus [5]; against Staphylococcus aureus [6]; in assay [7]; in assay [8]; in assay [9]; in the assay with Enterococcus faecalis [10]) was above 64 µg/mL throughout. Besides, the MIC with Enterococcus faecalis [11], in the assay with Enterococcus faecalis [12], against Enterococcus faecalis [13], with Enterococcus faecium [14], with Enterococcus faecium [15] and in the assay with Enterococcus faecium [16] was above 64 µg/mL each time. In addition, the MIC in the assay with Escherichia coli, in the assay on Klebsiella pneumoniae [17], against Klebsiella pneumoniae [18] and with Pseudomonas aeruginosa was above 64 µg/mL in each case. In addition, the IC50 in the assay on HepG2, in the assay with MCF7 and in the assay on K562 was above 100 µM throughout.

`COC(=O)c1c(OC)cc2cc3c(c(O)c2c1C)C(=O)[C@]1(OC)C(=O)C=C(OC)[C@@H](O)[C@]1(O)C3=O`: the IC50 in the assay on HepG2 was 1.6 µM; in the assay on MCF7, 1.5 µM; in the assay on K562 it was 5.2 µM.

For the compound `COC(=O)c1c(OC)cc2cc3c(c(O)c2c1C)C(=O)O[C@@H]3[C@@]1(O)[C@H](O)C(OC)=CC(=O)[C@@H]1O`, the MIC (with Morganella morganii; in the assay with Proteus vulgaris; in assay [1]; with Staphylococcus aureus [2]; in the assay with Staphylococcus aureus [3]; against Staphylococcus aureus [4]) was above 64 µg/mL each time. Further, the MIC (against Staphylococcus aureus [5]; with Staphylococcus aureus [6]; in [7]; in [8]; in assay [9]; against Enterococcus faecalis [10]) was above 64 µg/mL in each case. Further, the MIC against Enterococcus faecalis [11], in the assay on Enterococcus faecalis [12], with Enterococcus faecalis [13], in the assay on Enterococcus faecium [14], against Enterococcus faecium [15] and with Enterococcus faecium [16] was above 64 µg/mL each time. The MIC in the assay on Escherichia coli, against Klebsiella pneumoniae [17], in the assay on Klebsiella pneumoniae [18] and against Pseudomonas aeruginosa was above 64 µg/mL each time. In addition, the IC50 in the assay on HepG2, in the assay on MCF7 and in the assay with K562 was above 100 µM each time.

For the compound `C[C@H]1COc2c(N3CCN(C)CC3)c(F)cc3c(=O)c(C(=O)O)cn1c23.C[C@H]1COc2c(N3CCN(C)CC3)c(F)cc3c(=O)c(C(=O)O)cn1c23.O` [LEVOFLOXACIN], the MIC was 0.06 µg/mL against Morganella morganii; at most 0.03 µg/mL against Proteus vulgaris; 0.5 µg/mL in assay [1]; 0.25 µg/mL in the assay on Staphylococcus aureus [2]; 0.25 µg/mL against Staphylococcus aureus [3]; 0.25 µg/mL against Staphylococcus aureus [4]. Also, the MIC against Staphylococcus aureus [5] was 0.25 µg/mL; with Staphylococcus aureus [6] it was 128 µg/mL; in assay [7], 0.25 µg/mL; in assay [8] it was 0.5 µg/mL; in assay [9], 8 µg/mL; in the assay with Enterococcus faecalis [10] it was 0.5 µg/mL. The MIC against Enterococcus faecalis [11] is 0.5 µg/mL; in the assay on Enterococcus faecalis [12] it was 0.5 µg/mL; in the assay on Enterococcus faecalis [13], above 128 µg/mL; against Enterococcus faecium [14] it was 128 µg/mL; in the assay on Enterococcus faecium [15], 32 µg/mL; against Enterococcus faecium [16] it was 64 µg/mL. In addition, the MIC in the assay on Escherichia coli is at most 0.03 µg/mL; with Klebsiella pneumoniae [18] it was above 128 µg/mL; against Pseudomonas aeruginosa it was 0.5 µg/mL.
